Results published in patent publication US12161756B2, “Pharmaceutical-loaded nanocomposite for treating pulmonary infections” (Imam Abdulrahman Bin Faisal University, priority 2021, dated 2024).

Test system: HFF normal cells (Human foreskin fibroblasts)
Method: Toxicity studies were carried out to evaluate any toxic effect of developed nanoformulations. Cells were treated for 48 h with the following conditions for Zinc-containing nanocomposites: ZnFe2O4/Halloysite, Halloysite, Dexamethasone (Dex), ZnFe2O4/Halloysite/Dex, ZnFe2O4/Halloysite/Dex/PEG, and PEG. Similar protocol was used for nickel-containing nanocomposites. Treatment concentrations were as follows: 0.0375, 0.075, 0.15, and 0.3 mg/mL. In addition, cells were treated with Dex at concentrations to reflect that loaded in the nanocomposite as follows: 0.00181, 0.00362, 0.00725, and 0.01449 mg/mL. […] To choose the optimal dose, cells were exposed to specific doses at different time points. Cells were treated with dose 2 (0.075 mg/mL, see FIG. 9A), dose 3 (0.15 mg/mL, see FIG. 9B), or dose 4 (0.3 mg/mL, see FIG. 9C) for 24, 48, and 72 h.

C[C@@H]1C[C@H]2[C@@H]3CCC4=CC(=O)C=C[C@]4(C)[C@@]3(F)[C@@H](O)C[C@]2(C)[C@@]1(O)C(=O)CO [Dexamethasone, dexamethasone]
toxicity to cells: induce toxicity | dexamethasone dose found to be less toxic / usable dose (human, 48 h): up to 0.00362 mg/mL
